How the values were obtained:
Assay type in all cases: in vivo
[1] = test system: rice (Oryza sativa); test: Test B flooded paddy; details: Oryza sativa, 336 h; 250 g ai/ha, Flood, 13 to 15 days, scale 0 (no effect) to 100 (complete control); read-out: Plant response rating, Rice
How it was run: (§1)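 Test compounds are applied straight into paddy water held 3 cm above the soil surface, with that flood maintained for the whole test. After 13 to 15 days in the greenhouse, each species is scored visually relative to controls.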

[2] = test system: barnyardgrass (Echinochloa crus-galli); test: Test B flooded paddy; details: Echinochloa crus-galli, 336 h; 250 g ai/ha, Flood, 13 to 15 days, scale 0 (no effect) to 100 (complete control); read-out: Plant response rating, Barnyardgrass
How it was run: as §1

[3] = test system: sedge, umbrella (small-flower umbrella sedge, Cyperus difformis); test: Test B flooded paddy; details: Cyperus difformis, 336 h; 250 g ai/ha, Flood, 13 to 15 days, scale 0 (no effect) to 100 (complete control); read-out: Plant response rating, Sedge, Umbrella
How it was run: as §1

[4] = test system: ducksalad (Heteranthera limosa); test: Test B flooded paddy; details: Heteranthera limosa, 336 h; 250 g ai/ha, Flood, 13 to 15 days, scale 0 (no effect) to 100 (complete control); read-out: Plant response rating, Ducksalad
How it was run: as §1

[5] = test system: galium (catchweed bedstraw, Galium aparine); test: Test C preemergence; details: Galium, pre-emergence, 336 h, preemergence, scale 0 to 100, read-out: Plant response rating, Galium
Text: (§2) Seeds of plant species selected from blackgrass (Alopecurus myosuroides), Italian ryegrass (Lolium multiflorum), winter wheat (Triticum aestivum), galium (catchweed bedstraw, Galium aparine), corn (Zea mays), large (Lg) crabgrass (Digitaria sanguinalis), giant foxtail (Setaria faberii), johnsongrass (Sorghum halepense), lambsquarters (Chenopodium album), morningglory (Ipomoea coccinea), yellow nutsedge (Cyperus esculentus), pigweed (Amaranthus retroflexus), ragweed (common ragweed, Ambrosia elatior), soybean (Glycine max), barnyardgrass (Echinochloa crus-galli), oilseed rape (Brassica napus), waterhemp (common waterhemp, Amaranthus rudis), and velvetleaf (Abutilon theophrasti) were planted into a blend of loam soil and sand and treated preemergence with test chemicals formulated in a non-phytotoxic solvent mixture which included a surfactant.
(§3) At the same time, plants selected from these crop and weed species and also chickweed (common chickweed, Stellaria media), kochia (Kochia scoparia), and wild oat (Avena fatua), were planted in pots containing Redi-Earth® planting medium (Scotts Company, 14111 Scottslawn Road, Marysville, Ohio 43041) comprising spaghnum peat moss, vermiculite, wetting agent and starter nutrients and treated with postemergence applications of test chemicals formulated in the same manner. Plants ranged in height from 2 to 18 cm (1- to 4-leaf stage) for postemergence treatments. Treated plants and controls were maintained in a greenhouse for 13 to 15 days, after which time all species were compared to controls and visually evaluated. Plant response ratings, summarized in Table C, are based on a scale of 0 to 100 where 0 is no effect and 100 is complete control. A dash (-) response means no test result.

[6] = test system: yellow nutsedge (Cyperus esculentus); test: Test C preemergence; details: Cyperus, pre-emergence, 336 h, scale 0 to 100, read-out: Plant response rating, Nutsedge, Yellow
Text: as §2, §3

[7] = test system: lambsquarters (Chenopodium album); test: Test C preemergence; details: Chenopodium album, pre-emergence, 336 h, scale 0 to 100, read-out: Plant response rating, Lambsquarters
Text: as §2, §3

[8] = test system: ragweed (common ragweed, Ambrosia elatior); test: Test A preemergence; details: Ambrosia artemisiifolia, pre-emergence, 240 h
How it was run: (§4)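 Scoring: eye-based comparison with untreated controls, 0 for no effect through 100 for complete control, at about day 10. Treatments: directed soil spray preemergence; foliar spray postemergence on 2–10 cm plants at the one- to two-leaf stage. Medium: loam soil with sand.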

[9] = test system: pigweed (Amaranthus retroflexus); test: Test A preemergence; details: Amaranthus retroflexus, pre-emergence, 240 h
How it was run: as §4

[10] = test system: giant foxtail (Setaria faberii); test: Test A preemergence; details: Setaria faberi, pre-emergence, 240 h
How it was run: as §4

[11] = test system: barnyardgrass (Echinochloa crus-galli); test: Test A preemergence; details: Echinochloa crus-galli, pre-emergence, 240 h
How it was run: as §4

[12] = test system: Italian ryegrass (Lolium multiflorum); test: Test A preemergence; details: Lolium multiflorum, pre-emergence, 240 h
How it was run: as §4

[13] = test system: kochia (Kochia scoparia); test: Test A preemergence; details: Bassia scoparia, pre-emergence, 240 h
How it was run: as §4

[14] = test system: galium (catchweed bedstraw, Galium aparine); test: Test A postemergence; details: Galium, post-emergence, 240 h, 0 to 100 scale, read-out: Plant response rating, Galium
How it was run: as §4

[15] = test system: ragweed (common ragweed, Ambrosia elatior); test: Test A postemergence; details: Ambrosia artemisiifolia, post-emergence, 240 h, 0 to 100 scale, read-out: Plant response rating, Ragweed
How it was run: as §4

[16] = test system: corn (Zea mays); test: Test A postemergence; details: Zea mays, post-emergence, 240 h, 0 to 100 scale
How it was run: as §4

[17] = test system: wheat (Triticum aestivum); test: Test A postemergence; details: Triticum aestivum, post-emergence, 240 h, 0 to 100 scale, read-out: Plant response rating, Wheat
How it was run: as §4

[18] = test system: pigweed (Amaranthus retroflexus); test: Test A postemergence; details: Amaranthus retroflexus, post-emergence, 240 h, 0 to 100 scale, read-out: Plant response rating, Pigweed
How it was run: as §4

[19] = test system: blackgrass (Alopecurus myosuroides); test: Test A postemergence; details: Alopecurus myosuroides, post-emergence, 240 h, 0 to 100 scale, read-out: Plant response rating, Blackgrass
How it was run: as §4

[20] = test system: giant foxtail (Setaria faberii); test: Test A postemergence; details: Setaria faberi, post-emergence, 240 h, 0 to 100 scale, read-out: Plant response rating, Foxtail, Giant
How it was run: as §4

[21] = test system: barnyardgrass (Echinochloa crus-galli); test: Test A postemergence; details: Echinochloa crus-galli, post-emergence, 240 h, 0 to 100 scale, read-out: Plant response rating, Barnyardgrass
How it was run: as §4

[22] = test system: Italian ryegrass (Lolium multiflorum); test: Test A postemergence; details: Lolium multiflorum, post-emergence, 240 h, 0 to 100 scale, read-out: Plant response rating, Ryegrass, Italian
How it was run: as §4

[23] = test system: kochia (Kochia scoparia); test: Test A postemergence; details: Bassia scoparia, post-emergence, 240 h, 0 to 100 scale, read-out: Plant response rating, Kochia
How it was run: as §4

Structure (SMILES): N#Cc1cccc(Oc2ncc(Br)cn2)c1Oc1ncc(Cl)cn1 [Compound 5, 3-[(5-bromo-2-pyrimidinyl)oxy]-2-[(5-chloro-2-pyrimidinyl)oxy]benzonitrile]
- plant injury at 250 g/ha [1]: 0%
- pest or weed control at 250 g/ha [2]: 35%
- pest or weed control at 250 g/ha [3]: 75%
- pest or weed control at 250 g/ha [4]: 100%
- pest or weed control at 31 g/ha ([5]; 31 g ai/ha): 50%
- pest or weed control at 62 g/ha ([5]; 62 g ai/ha): 100%
- pest or weed control at 125 g/ha ([5]; 125 g ai/ha): 100%
- pest or weed control at 31 g/ha ([6]; 31 g ai/ha, preemergence): 5%
- pest or weed control at 62 g/ha ([6]; 62 g ai/ha, preemergence): 25%
- pest or weed control at 125 g/ha ([6]; 125 g ai/ha, preemergence): 60%
- pest or weed control at 16 g/ha ([6]; Preemergence, 16 g ai/ha): 0%
- pest or weed control at 31 g/ha ([7]; 31 g ai/ha, preemergence): 100%
- pest or weed control at 62 g/ha ([7]; 62 g ai/ha, preemergence): 100%
- pest or weed control at 125 g/ha ([7]; 125 g ai/ha, preemergence): 100%
- pest or weed control at 16 g/ha ([7]; Preemergence, 16 g ai/ha): 80%
- pest or weed control at 31 g/ha ([8]; 31 g ai/ha, 0 to 100 scale (0 no effect, 100 complete control), read-out: Ragweed plant response rating): 0%
- pest or weed control at 125 g/ha ([8]; 125 g ai/ha, 0 to 100 scale, read-out: Plant response rating, Ragweed): 20%
- pest or weed control at 31 g/ha ([9]; 31 g ai/ha, 0 to 100 scale (0 no effect, 100 complete control), read-out: Pigweed plant response rating): 100%
- pest or weed control at 125 g/ha ([9]; 125 g ai/ha, 0 to 100 scale, read-out: Plant response rating, Pigweed): 100%
- pest or weed control at 31 g/ha ([10]; 31 g ai/ha, 0 to 100 scale (0 no effect, 100 complete control), read-out: Foxtail, Giant plant response rating): 90%
- pest or weed control at 125 g/ha ([10]; 125 g ai/ha, 0 to 100 scale, read-out: Plant response rating, Foxtail, Giant): 100%
- pest or weed control at 31 g/ha ([11]; 31 g ai/ha, 0 to 100 scale (0 no effect, 100 complete control), read-out: Barnyardgrass plant response rating): 20%
- pest or weed control at 125 g/ha ([11]; 125 g ai/ha, 0 to 100 scale, read-out: Plant response rating, Barnyardgrass): 80%
- pest or weed control at 31 g/ha ([12]; 31 g ai/ha, 0 to 100 scale (0 no effect, 100 complete control), read-out: Ryegrass, Italian plant response rating): 0%
- pest or weed control at 125 g/ha ([12]; 125 g ai/ha, 0 to 100 scale, read-out: Plant response rating, Ryegrass, Italian): 60%
- pest or weed control at 31 g/ha ([13]; 31 g ai/ha, 0 to 100 scale (0 no effect, 100 complete control), read-out: Kochia plant response rating): 100%
- pest or weed control at 125 g/ha ([13]; 125 g ai/ha, 0 to 100 scale, read-out: Plant response rating, Kochia): 100%
- pest or weed control at 31 g/ha ([14]; 31 g ai/ha): 50%
- pest or weed control at 125 g/ha ([14]; 125 g ai/ha): 90%
- pest or weed control at 31 g/ha ([15]; 31 g ai/ha): 20%
- pest or weed control at 125 g/ha ([15]; 125 g ai/ha): 40%
- Corn plant response rating (crop injury, 0 = no effect, 100 = complete kill) at 31 g/ha ([16]; 31 g ai/ha): 20%
- Corn plant response rating (crop injury, 0 = no effect, 100 = complete kill) at 125 g/ha ([16]; 125 g ai/ha): 80%
- plant injury at 31 g/ha ([17]; 31 g ai/ha): 20%
- plant injury at 125 g/ha ([17]; 125 g ai/ha): 40%
- pest or weed control at 31 g/ha ([18]; 31 g ai/ha): 70%
- pest or weed control at 125 g/ha ([18]; 125 g ai/ha): 100%
- pest or weed control at 31 g/ha ([19]; 31 g ai/ha): 40%
- pest or weed control at 125 g/ha ([19]; 125 g ai/ha): 90%
- pest or weed control at 31 g/ha ([20]; 31 g ai/ha): 10%
- pest or weed control at 125 g/ha ([20]; 125 g ai/ha): 90%
- pest or weed control at 31 g/ha ([21]; 31 g ai/ha): 20%
- pest or weed control at 125 g/ha ([21]; 125 g ai/ha): 90%
- pest or weed control at 31 g/ha ([22]; 31 g ai/ha): 20%
- pest or weed control at 125 g/ha ([22]; 125 g ai/ha): 50%
- pest or weed control at 31 g/ha ([23]; 31 g ai/ha): 70%
- pest or weed control at 125 g/ha ([23]; 125 g ai/ha): 100%

— patent publication US20170190671A1, “BIS(ARYL)CATECHOL DERIVATIVES AS HERBICIDES” (E I DU PONT DE NEMOURS AND COMPANY, priority 2014, published 2017)
